Columns and labels:
JMJD2C (KDM4C) = biological target: T1, JMJD2C (KDM4C) (Homo sapiens, UniProt Q9H3R0); design: method as in PMID 26682036; settings: cited from earlier work
T1 sequence (Q9H3R0 1-1056): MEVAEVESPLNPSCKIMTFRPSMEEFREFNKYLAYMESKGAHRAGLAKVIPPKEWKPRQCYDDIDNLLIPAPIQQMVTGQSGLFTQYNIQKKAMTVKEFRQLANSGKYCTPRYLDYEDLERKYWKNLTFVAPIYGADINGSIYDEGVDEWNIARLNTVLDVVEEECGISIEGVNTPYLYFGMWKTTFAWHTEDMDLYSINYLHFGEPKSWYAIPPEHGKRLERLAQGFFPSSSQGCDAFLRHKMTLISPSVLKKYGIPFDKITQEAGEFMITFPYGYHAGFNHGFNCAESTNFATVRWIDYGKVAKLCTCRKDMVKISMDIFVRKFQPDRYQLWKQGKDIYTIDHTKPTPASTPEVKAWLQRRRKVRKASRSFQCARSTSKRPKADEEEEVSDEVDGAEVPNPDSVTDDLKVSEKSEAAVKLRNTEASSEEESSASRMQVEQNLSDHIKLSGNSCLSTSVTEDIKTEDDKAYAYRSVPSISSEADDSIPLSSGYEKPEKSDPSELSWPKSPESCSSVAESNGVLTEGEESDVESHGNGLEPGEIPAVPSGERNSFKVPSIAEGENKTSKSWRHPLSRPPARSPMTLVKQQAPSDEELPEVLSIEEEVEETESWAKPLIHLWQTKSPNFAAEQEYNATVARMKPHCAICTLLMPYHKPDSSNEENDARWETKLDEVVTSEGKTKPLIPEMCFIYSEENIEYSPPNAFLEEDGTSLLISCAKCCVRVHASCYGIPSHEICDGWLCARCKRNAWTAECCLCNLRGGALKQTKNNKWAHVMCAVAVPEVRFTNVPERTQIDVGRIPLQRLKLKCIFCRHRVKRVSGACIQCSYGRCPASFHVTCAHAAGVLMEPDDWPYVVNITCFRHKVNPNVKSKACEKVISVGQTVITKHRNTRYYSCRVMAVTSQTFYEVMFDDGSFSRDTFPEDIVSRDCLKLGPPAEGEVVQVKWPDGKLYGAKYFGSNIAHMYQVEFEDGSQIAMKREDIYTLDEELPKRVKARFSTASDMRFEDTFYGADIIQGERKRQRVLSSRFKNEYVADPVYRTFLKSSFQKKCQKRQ

JMJD3 (KDM6B) = JMJD3 (KDM6B) (Homo sapiens, UniProt O15054); design: method as in PMID 26682036; settings: cited from earlier work
JMJD1A (KDM3A) = biological target: T2, JMJD1A (KDM3A) (Homo sapiens, UniProt Q9Y4C1); assay: KDM AlphaScreen assay, JMJD1A
T2 sequence (Q9Y4C1 1-1321): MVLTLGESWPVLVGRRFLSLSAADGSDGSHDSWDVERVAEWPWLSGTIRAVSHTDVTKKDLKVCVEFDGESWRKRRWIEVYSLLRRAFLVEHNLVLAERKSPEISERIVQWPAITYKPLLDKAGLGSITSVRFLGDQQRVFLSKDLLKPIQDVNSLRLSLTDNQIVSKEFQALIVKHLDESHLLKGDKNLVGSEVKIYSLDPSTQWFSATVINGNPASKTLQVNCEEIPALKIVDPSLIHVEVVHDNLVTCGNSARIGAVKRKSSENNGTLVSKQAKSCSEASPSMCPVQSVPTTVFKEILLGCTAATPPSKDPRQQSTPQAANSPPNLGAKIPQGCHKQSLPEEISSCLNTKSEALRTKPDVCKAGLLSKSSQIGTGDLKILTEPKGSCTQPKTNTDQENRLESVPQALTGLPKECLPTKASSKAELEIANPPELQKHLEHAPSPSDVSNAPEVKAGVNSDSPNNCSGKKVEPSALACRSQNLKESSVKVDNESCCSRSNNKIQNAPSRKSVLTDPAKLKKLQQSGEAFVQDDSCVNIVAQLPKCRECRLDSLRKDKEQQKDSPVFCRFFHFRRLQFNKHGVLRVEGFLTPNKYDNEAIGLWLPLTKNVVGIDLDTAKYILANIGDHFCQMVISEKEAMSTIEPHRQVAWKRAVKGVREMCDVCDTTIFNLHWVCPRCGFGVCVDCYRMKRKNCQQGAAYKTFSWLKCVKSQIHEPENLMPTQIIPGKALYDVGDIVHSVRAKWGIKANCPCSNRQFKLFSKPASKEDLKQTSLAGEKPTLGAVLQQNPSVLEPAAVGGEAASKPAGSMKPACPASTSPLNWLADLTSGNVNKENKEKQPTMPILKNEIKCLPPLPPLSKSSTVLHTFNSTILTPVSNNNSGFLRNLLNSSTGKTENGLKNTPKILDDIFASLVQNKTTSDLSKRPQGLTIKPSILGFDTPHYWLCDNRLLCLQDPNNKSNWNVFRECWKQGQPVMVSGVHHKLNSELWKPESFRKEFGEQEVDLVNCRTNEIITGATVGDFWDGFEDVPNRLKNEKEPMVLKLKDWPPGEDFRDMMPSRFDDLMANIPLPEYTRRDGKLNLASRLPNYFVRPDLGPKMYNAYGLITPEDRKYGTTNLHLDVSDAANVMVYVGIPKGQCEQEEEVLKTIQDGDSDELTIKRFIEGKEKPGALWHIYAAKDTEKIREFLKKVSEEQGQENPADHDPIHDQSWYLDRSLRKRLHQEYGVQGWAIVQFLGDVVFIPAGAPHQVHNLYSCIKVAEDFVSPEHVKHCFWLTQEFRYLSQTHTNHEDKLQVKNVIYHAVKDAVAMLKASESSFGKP
Description: Inhibition assays for PHD2 (AlphaScreen) [9], the KDMs (AlphaScreen) [17], BBOX [18] and FTO [19] were carried out as previously described. […] IC50 values were calculated using nonlinear regression with normalized dose-response fit using GraphPad Prism 5.

Sequence of JMJD3 (KDM6B) (O15054 whole entry): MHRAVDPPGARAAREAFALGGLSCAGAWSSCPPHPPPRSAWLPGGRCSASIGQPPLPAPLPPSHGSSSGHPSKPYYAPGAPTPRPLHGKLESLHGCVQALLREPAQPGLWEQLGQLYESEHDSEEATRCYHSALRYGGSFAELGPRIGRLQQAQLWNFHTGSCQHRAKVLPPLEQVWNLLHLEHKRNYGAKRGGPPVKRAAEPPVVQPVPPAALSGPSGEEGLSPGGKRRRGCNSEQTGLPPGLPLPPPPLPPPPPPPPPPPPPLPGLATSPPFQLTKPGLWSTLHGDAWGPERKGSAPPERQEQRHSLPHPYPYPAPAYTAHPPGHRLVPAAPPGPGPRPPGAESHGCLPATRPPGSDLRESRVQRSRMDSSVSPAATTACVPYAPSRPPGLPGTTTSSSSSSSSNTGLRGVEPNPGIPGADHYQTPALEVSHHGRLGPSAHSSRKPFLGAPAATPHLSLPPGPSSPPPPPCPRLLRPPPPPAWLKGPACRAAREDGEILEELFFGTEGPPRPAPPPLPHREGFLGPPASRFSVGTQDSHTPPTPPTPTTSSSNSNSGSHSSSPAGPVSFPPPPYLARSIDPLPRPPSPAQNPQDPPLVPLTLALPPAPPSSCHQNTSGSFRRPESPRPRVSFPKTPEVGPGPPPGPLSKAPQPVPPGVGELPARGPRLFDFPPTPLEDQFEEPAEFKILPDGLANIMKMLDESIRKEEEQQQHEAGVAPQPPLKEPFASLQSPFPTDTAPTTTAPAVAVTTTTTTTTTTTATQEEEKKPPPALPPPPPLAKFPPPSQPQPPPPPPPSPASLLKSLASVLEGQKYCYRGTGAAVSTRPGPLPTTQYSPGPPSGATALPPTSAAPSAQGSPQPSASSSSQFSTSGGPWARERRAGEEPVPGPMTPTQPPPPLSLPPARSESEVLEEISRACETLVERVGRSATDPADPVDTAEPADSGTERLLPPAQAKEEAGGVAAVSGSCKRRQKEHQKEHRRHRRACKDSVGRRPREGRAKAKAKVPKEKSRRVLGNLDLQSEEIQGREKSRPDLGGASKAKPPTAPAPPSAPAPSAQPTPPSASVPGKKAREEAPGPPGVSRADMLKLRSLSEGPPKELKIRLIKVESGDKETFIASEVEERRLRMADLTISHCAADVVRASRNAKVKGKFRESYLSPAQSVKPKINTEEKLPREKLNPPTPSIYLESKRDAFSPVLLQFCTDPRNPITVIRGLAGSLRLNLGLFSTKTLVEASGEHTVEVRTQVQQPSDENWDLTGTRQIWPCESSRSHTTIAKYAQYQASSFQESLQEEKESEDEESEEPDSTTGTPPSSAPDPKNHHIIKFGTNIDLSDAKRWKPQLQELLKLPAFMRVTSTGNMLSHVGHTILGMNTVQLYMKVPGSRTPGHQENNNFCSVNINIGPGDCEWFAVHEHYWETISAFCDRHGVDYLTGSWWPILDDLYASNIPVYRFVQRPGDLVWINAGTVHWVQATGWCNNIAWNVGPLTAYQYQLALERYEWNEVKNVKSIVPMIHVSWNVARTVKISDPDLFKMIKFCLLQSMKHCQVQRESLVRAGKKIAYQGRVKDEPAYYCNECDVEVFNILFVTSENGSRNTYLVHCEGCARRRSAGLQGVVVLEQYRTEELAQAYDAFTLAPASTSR

SMILES | IC50 (JMJD2C (KDM4C)) [µM] | IC50 (JMJD3 (KDM6B)) [µM] | IC50 (JMJD1A (KDM3A)) [µM]
O=C(O)CNC(=O)c1c(O)c2ccccc2n(Cc2ccccc2)c1=O [IOX2] | 100 | > 100 | 
CC(C)(C)OC(=O)c1ccc(-n2[nH]cc(-n3ccnn3)c2=O)nc1 [IOX4, t-Butyl 6-(5-oxo-4-(1H-1,2,3-triazol-1-yl)-2,5-dihydro-1H-pyrazol-1-yl)nicotinate] |  |  | > 20

Reference: PMC4492579, “Potent and Selective Triazole-Based Inhibitors of the Hypoxia-Inducible Factor Prolyl-Hydroxylases with Activity in the Murine Brain” (PLoS ONE, 2015)
